Measurements as given in PMC7408349, “Synthesis and Anticancer Activity of Dimeric Polyether Ionophores” (Biomolecules, 2020).

How the values were obtained:
[1] = In vitro antiproliferative activity, SRB assay, LoVo/DX
[2] = system: LoVo/DX cells (doxorubicin-resistant human colon adenocarcinoma sub-line, ABCB1 overexpression); experiment: as above; conditions: Homo sapiens, LoVo/DX, 72 h, read-out: IC50 LoVo/DX
[3] = system: MCF10A cells (normal mammary epithelial cell line); experiment: Cytotoxicity on non-tumor cells, SRB assay, MCF10A; assay type: cell-based; conditions: Homo sapiens, MCF-10A, 72 h incubation, mean ± SD, '---' = inactive (undetectable IC50 in tested concentration range)
Excerpt: (§1) Each experiment was repeated at least three times separately.

[4] = system: MV-4-11 cells (human acute myeloid leukemia cell line); experiment: In vitro antiproliferative activity, SRB assay, MV-4-11; assay type: cell-based; conditions: MV4-11, 72 h incubation, mean ± SD, LAS, MON, SAL as sodium salts
Excerpt: as §1

[5] = system: SKBR-3 cells (human breast cancer cell line); experiment: In vitro antiproliferative activity, SRB assay, SKBR-3; assay type: cell-based; conditions: mean ± SD, LAS, MON, SAL as sodium salts
Excerpt: as §1

[6] = system: MCF-7 cells (human breast cancer cell line); experiment: In vitro antiproliferative activity, SRB assay, MCF-7; assay type: cell-based; conditions: MCF7, 72 h incubation, mean ± SD, LAS, MON, SAL as sodium salts, '---' = inactive (undetectable IC50 in tested concentration range)
Excerpt: as §1

[7] = system: LoVo cells (human colon adenocarcinoma, drug-sensitive variant); experiment: In vitro antiproliferative activity, SRB assay, LoVo; assay type: cell-based; conditions: 72 h incubation, mean ± SD, LAS, MON, SAL as sodium salts
Excerpt: as §1

[8] = system: BALB/3T3 cells (normal embryonic fibroblasts); experiment: Cytotoxicity on non-tumor cells, SRB assay, BALB/3T3; assay type: cell-based, murine; conditions: Mus musculus, non-tumor cell line, 72 h incubation, mean ± SD, '---' = inactive (undetectable IC50 in tested concentration range)
Excerpt: as §1

[9] = system: JIMT-1 cells (human breast cancer cell line); experiment: In vitro antiproliferative activity, SRB assay, JIMT-1; assay type: cell-based; conditions: mean ± SD, LAS, MON, SAL as sodium salts, '---' = inactive (undetectable IC50 in tested concentration range)
Excerpt: as §1

[10] = mouse (BALB/3T3), human (LoVo/DX)
[11] = Homo sapiens, SK-BR-3, 72 h incubation
[12] = Homo sapiens, JIMT-1, 72 h incubation

**Q.** Which selectivity ratio at 72 h ([1]; human) does the source give for `C=C(C)[C@@H]1CC[C@]2(C(=O)O)CC[C@]3(C)[C@H](CC[C@@H]4[C@@]5(C)CC[C@H](O)C(C)(C)[C@@H]5CC[C@]43C)[C@@H]12` [BET, betulinic acid] here?
**A.** 0.81

**Q.** And the selectivity ratio at 72 h [1, 10]?
**A.** 9.47

**Q.** And the IC50 [2]?
**A.** 8960 ± 1080 nM

**Q.** What about the IC50 [3] of the same compound?
**A.** 7230 ± 1240 nM

**Q.** And the IC50 [4]?
**A.** 1420 ± 970 nM

**Q.** And the IC50 [5, 11]?
**A.** 7470 ± 1160 nM

**Q.** What about the IC50 [6] of the same compound?
**A.** 12600 ± 1570 nM

**Q.** And the IC50 [7]?
**A.** 16500 ± 6560 nM

**Q.** And the IC50 [8]?
**A.** 84800 ± 10000 nM

**Q.** And the IC50 [9, 12]?
**A.** 9900 ± 2320 nM

**Q.** Which results are given for `N.N.[Cl][Pt][Cl]` [CIS, cisplatin]?
**A.** IC50 ([5]; 72 h incubation): 4170 nM; IC50 ([9]; 72 h incubation): 8230 nM

**Q.** With `COc1cccc2c1C(=O)c1c(O)c3c(c(O)c1C2=O)C[C@@](O)(C(=O)CO)C[C@@H]3O[C@H]1C[C@H](N)[C@H](O)[C@H](C)O1` [DX, doxorubicin] as the compound, how does the selectivity ratio at 72 h ([1]; human) read?
**A.** 0.02

**Q.** And the selectivity ratio at 72 h [1, 10]?
**A.** 0.03

**Q.** And the IC50 [2]?
**A.** 8740 ± 1460 nM

**Q.** And the IC50 [3]?
**A.** 170 ± 30 nM

**Q.** And the IC50 [4]?
**A.** 20 ± 4 nM

**Q.** What about the IC50 [5, 11] of the same compound?
**A.** 110 ± 10 nM

**Q.** And the IC50 [6]?
**A.** 130 ± 50 nM

**Q.** And the IC50 [7]?
**A.** 110 ± 4 nM

**Q.** What about the IC50 [8] of the same compound?
**A.** 260 ± 140 nM

**Q.** And the IC50 [9, 12]?
**A.** 400 ± 100 nM

**Q.** What does the source list for `CC[C@@H](C(=O)[C@@H](C)[C@@H](O)[C@H](C)CCc1ccc(C)c(O)c1C(=O)O)[C@H]1O[C@](CC)([C@H]2CC[C@](O)(CC)[C@H](C)O2)C[C@@H]1C` [LAS, lasalocid acid]?
**A.** selectivity ratio at 72 h ([1]; human): 1.5; selectivity ratio at 72 h [1, 10]: 2; IC50 [2]: 4550 ± 270 nM; IC50 [3]: 6810 ± 2850 nM; IC50 [4]: 1960 ± 650 nM; IC50 [5, 11]: 1370 ± 10 nM; IC50 [6]: 4440 ± 1340 nM; IC50 [7]: 4050 ± 1020 nM; IC50 [8]: 9110 ± 3650 nM; IC50 [9, 12]: 5550 nM

**Q.** Which results are given for `CC[C@@]1([C@@H]2O[C@@H]([C@H]3O[C@@](O)(CO)[C@H](C)C[C@@H]3C)C[C@@H]2C)CC[C@H]([C@]2(C)CC[C@]3(C[C@H](O)[C@@H](C)[C@@H]([C@@H](C)[C@@H](OC)[C@H](C)C(=O)O)O3)O2)O1` [MON, monensin]?
**A.** IC50 [2]: 260 ± 110 nM; IC50 [3]: 870 ± 230 nM; IC50 [4]: 30 ± 20 nM; IC50 [5, 11]: 40 ± 20 nM; IC50 [6]: 510 ± 120 nM; IC50 [7]: 90 ± 60 nM; IC50 [8]: 1100 ± 240 nM; selectivity ratio at 72 h (in vitro; human): 3.35; selectivity ratio at 72 h (in vitro; [10]): 4.23; IC50 [9, 12]: 1170 ± 140 nM

**Q.** With `CC[C@@H](C(=O)[C@@H](C)[C@@H](O)[C@H](C)[C@@H]1O[C@@H]([C@@H](CC)C(=O)O)CC[C@@H]1C)[C@H]1O[C@]2(C=C[C@@H](O)[C@]3(CC[C@@](C)([C@H]4CC[C@](O)(CC)[C@H](C)O4)O3)O2)[C@H](C)C[C@@H]1C` [SAL, salinomycin] as the compound, how does the IC50 [2] read?
**A.** 610 ± 210 nM

**Q.** And the IC50 [3]?
**A.** 1280 ± 460 nM

**Q.** What about the IC50 [4] of the same compound?
**A.** 100 ± 30 nM

**Q.** What about the IC50 [5, 11] of the same compound?
**A.** 270 nM

**Q.** What about the IC50 [6] of the same compound?
**A.** 930 ± 330 nM

**Q.** And the IC50 [7]?
**A.** 250 ± 70 nM

**Q.** And the IC50 [8]?
**A.** 1550 ± 860 nM

**Q.** And the selectivity ratio at 72 h (in vitro; human)?
**A.** 2.1

**Q.** And the selectivity ratio at 72 h (in vitro; [10])?
**A.** 2.54

**Q.** And the IC50 [9, 12]?
**A.** 2670 nM

**Q.** Which IC50 [2] does the source give for `C=C(C)[C@@H]1CC[C@]2(C(=O)NCc3cn([C@H]4C=C[C@]5(O[C@H]([C@@H](CC)C(=O)[C@@H](C)[C@@H](O)[C@H](C)[C@@H]6O[C@@H]([C@@H](CC)C(=O)O)CC[C@@H]6C)[C@@H](C)C[C@H]5C)O[C@@]45CC[C@@](C)([C@H]4CC[C@](O)(CC)[C@H](C)O4)O5)nn3)CC[C@]3(C)[C@H](CC[C@@H]4[C@@]5(C)CC[C@H](O)C(C)(C)[C@@H]5CC[C@]43C)[C@@H]12` [compound 18, Salinomycin-betulinic acid dimer] here?
**A.** 14100 ± 6900 nM

**Q.** What about the IC50 [3] of the same compound?
**A.** 10300 ± 4470 nM

**Q.** And the IC50 [4]?
**A.** 100 ± 90 nM

**Q.** And the IC50 [5, 11]?
**A.** 340 ± 130 nM

**Q.** And the IC50 [6]?
**A.** 4190 ± 1820 nM

**Q.** What about the IC50 [7] of the same compound?
**A.** 430 ± 130 nM

**Q.** What about the IC50 [8] of the same compound?
**A.** 4870 ± 1560 nM

**Q.** And the selectivity ratio at 72 h (in vitro; human)?
**A.** 0.73

**Q.** And the selectivity ratio at 72 h (in vitro; [10])?
**A.** 0.35

**Q.** And the IC50 [9, 12]?
**A.** 7280 ± 3110 nM

**Q.** What does the source list for `C=C(C)[C@@H]1CC[C@]2(C(=O)OCc3cn([C@H]4C=C[C@]5(O[C@H]([C@@H](CC)C(=O)[C@@H](C)[C@@H](O)[C@H](C)[C@@H]6O[C@@H]([C@@H](CC)C(=O)O)CC[C@@H]6C)[C@@H](C)C[C@H]5C)O[C@@]45CC[C@@](C)([C@H]4CC[C@](O)(CC)[C@H](C)O4)O5)nn3)CC[C@]3(C)[C@H](CC[C@@H]4[C@@]5(C)CC[C@H](O)C(C)(C)[C@@H]5CC[C@]43C)[C@@H]12` [compound 19, Salinomycin-betulinic acid dimer]?
**A.** IC50 [3]: 7020 ± 2440 nM; IC50 [4]: 290 ± 140 nM; IC50 [5, 11]: 600 ± 260 nM; IC50 [6]: 6870 ± 3280 nM; IC50 [7]: 2660 ± 980 nM; IC50 [8]: 6220 ± 1440 nM; IC50 [9, 12]: 7090 ± 2220 nM

**Q.** For `C=C(C)[C@@H]1CC[C@]2(C(=O)O)CC[C@]3(C)[C@H](CC[C@@H]4[C@@]5(C)CC[C@H](OC(=O)OCc6cn([C@H]7C=C[C@]8(O[C@H]([C@@H](CC)C(=O)[C@@H](C)[C@@H](O)[C@H](C)[C@@H]9O[C@@H]([C@@H](CC)C(=O)O)CC[C@@H]9C)[C@@H](C)C[C@H]8C)O[C@@]78CC[C@@](C)([C@H]7CC[C@](O)(CC)[C@H](C)O7)O8)nn6)C(C)(C)[C@@H]5CC[C@]43C)[C@@H]12` [compound 20, Salinomycin-betulinic acid dimer], which IC50 [2] is on record?
**A.** 48600 ± 11800 nM

**Q.** What about the IC50 [3] of the same compound?
**A.** 30300 ± 13800 nM

**Q.** What about the IC50 [4] of the same compound?
**A.** 1920 ± 820 nM

**Q.** And the IC50 [5, 11]?
**A.** 3250 ± 240 nM

**Q.** And the IC50 [6]?
**A.** 21700 ± 5280 nM

**Q.** And the IC50 [7]?
**A.** 5180 ± 720 nM

**Q.** What about the IC50 [8] of the same compound?
**A.** 18700 ± 4570 nM

**Q.** What about the selectivity ratio at 72 h (in vitro; human) of the same compound?
**A.** 0.62

**Q.** And the selectivity ratio at 72 h (in vitro; [10])?
**A.** 0.39

**Q.** What about the IC50 [9, 12] of the same compound?
**A.** 14700 ± 4880 nM
